Results reported in publication PMC5988656, “Phase I studies of AZD1208, a proviral integration Moloney virus kinase inhibitor in solid and haematological cancers” (British Journal of Cancer, 2018).

Test system: patients with recurrent or refractory AML
Experiment: AML dose-escalation study: safety and tolerability (AEs, DLTs)
Format: in vivo, human
From the text: Conducted at three centres in the USA and one in Canada. Dose escalation followed a conventional 3 + 3 design. […] In the first cohort, dosing between the first and subsequent patients was staggered with a 7-day interval. Dose-escalation decisions were based on the safety and tolerability data from ≥3 evaluable patients (or six if one of the first three patients experienced a dose-limiting toxicity [DLT]).
AZD1208 could be escalated by up to 100% in subsequent cohorts until one DLT was observed, after which succeeding doses were escalated by up to 50%.
In the case of a DLT, the cohort was expanded to six patients. If a DLT occurred in ≥2 patients within a cohort, the dose was determined to be a non-tolerated dose (NTD) and dose escalation was stopped.
Grade 3 or 4 toxicities not attributable to the disease or disease-related processes under investigation, and occurring before the end of Cycle 1, were considered DLTs.
The NTD was identified as the dose at which ≥2 DLTs occurred in a given cohort.

N[C@@H]1CCCN(c2c(/C=C3\SC(=O)NC3=O)cccc2-c2ccccc2)C1 [AZD1208]
Hyperglycaemia (all-grade AE) (700 mg, n = 7): 1 (14.3) n (%) | Hypocalcaemia (all-grade AE) (700 mg, n = 7): 3 (42.9) n (%) | Hypokalaemia (all-grade AE) (700 mg, n = 7): 2 (28.6) n (%) | Hypomagnesaemia (all-grade AE) (700 mg, n = 7): 2 (28.6) n (%) | Hypophosphataemia (all-grade AE) (700 mg, n = 7): 1 (14.3) n (%) | Hypotension (all-grade AE) (700 mg, n = 7): 3 (42.9) n (%) | Maculopapular rash (all-grade AE) (700 mg, n = 7): 2 (28.6) n (%) | Nausea (all-grade AE) (700 mg, n = 7): 5 (71.4) n (%) | Oedema peripheral (all-grade AE) (700 mg, n = 7): 2 (28.6) n (%) | Patients with any AE (all-grade AE) (700 mg, n = 7): 7 (100.0) n (%) | Pneumonia (all-grade AE) (700 mg, n = 7): 0 n (%) | Pyrexia (all-grade AE) (700 mg, n = 7): 0 n (%) | Rash (all-grade AE) (700 mg, n = 7): 1 (14.3) n (%) | Renal failure acute (all-grade AE) (700 mg, n = 7): 1 (14.3) n (%) | Stomatitis (all-grade AE) (700 mg, n = 7): 0 n (%) | Vision blurred (all-grade AE) (700 mg, n = 7): 0 n (%) | Vomiting (all-grade AE) (700 mg, n = 7): 2 (28.6) n (%) | Patients in whom AZD1208 was discontinued as a result of SAEs and AEs (900 mg (acute coronary syndrome, rash)): 2 n | Tolerability (900 mg QD): not tolerated | Abdominal pain (all-grade AE) (900 mg, n = 9): 1 (11.1) n (%) | Asthenia (all-grade AE) (900 mg, n = 9): 2 (22.2) n (%) | Chills (all-grade AE) (900 mg, n = 9): 2 (22.2) n (%) | Cough (all-grade AE) (900 mg, n = 9): 2 (22.2) n (%) | DLT detail, action taken (900 mg, n = 9): Rash, drug permanently discontinued; maculopapular rash, drug permanently discontinued | Decreased appetite (all-grade AE) (900 mg, n = 9): 1 (11.1) n (%) | Dehydration (all-grade AE) (900 mg, n = 9): 4 (44.4) n (%) | Diarrhoea (all-grade AE) (900 mg, n = 9): 4 (44.4) n (%) | Dyspnoea (all-grade AE) (900 mg, n = 9): 2 (22.2) n (%) | Fatigue (all-grade AE) (900 mg, n = 9): 2 (22.2) n (%) | Febrile neutropenia (all-grade AE) (900 mg, n = 9): 3 (33.3) n (%) | Headache (all-grade AE) (900 mg, n = 9): 0 n (%) | Hyperglycaemia (all-grade AE) (900 mg, n = 9): 2 (22.2) n (%) | Hypocalcaemia (all-grade AE) (900 mg, n = 9): 1 (11.1) n (%) | Hypokalaemia (all-grade AE) (900 mg, n = 9): 2 (22.2) n (%) | Hypomagnesaemia (all-grade AE) (900 mg, n = 9): 1 (11.1) n (%) | Hypophosphataemia (all-grade AE) (900 mg, n = 9): 2 (22.2) n (%) | Hypotension (all-grade AE) (900 mg, n = 9): 2 (22.2) n (%) | Maculopapular rash (all-grade AE) (900 mg, n = 9): 1 (11.1) n (%) | Nausea (all-grade AE) (900 mg, n = 9): 2 (22.2) n (%) | Oedema peripheral (all-grade AE) (900 mg, n = 9): 2 (22.2) n (%) | Patients with any AE (all-grade AE) (900 mg, n = 9): 9 (100.0) n (%) | Pneumonia (all-grade AE) (900 mg, n = 9): 0 n (%) | Pyrexia (all-grade AE) (900 mg, n = 9): 3 (33.3) n (%) | Rash (all-grade AE) (900 mg, n = 9): 2 (22.2) n (%) | Renal failure acute (all-grade AE) (900 mg, n = 9): 0 n (%) | Stomatitis (all-grade AE) (900 mg, n = 9): 0 n (%) | Vision blurred (all-grade AE) (900 mg, n = 9): 0 n (%) | Vomiting (all-grade AE) (900 mg, n = 9): 1 (11.1) n (%) | Abdominal pain (all-grade AE) (Total N = 32): 6 (18.8) n (%) | Asthenia (all-grade AE) (Total N = 32): 5 (15.6) n (%) | Chills (all-grade AE) (Total N = 32): 4 (12.5) n (%) | Cough (all-grade AE) (Total N = 32): 8 (25.0) n (%) | Decreased appetite (all-grade AE) (Total N = 32): 4 (12.5) n (%) | Dehydration (all-grade AE) (Total N = 32): 4 (12.5) n (%) | Diarrhoea (all-grade AE) (Total N = 32): 14 (43.8) n (%) | Dyspnoea (all-grade AE) (Total N = 32): 7 (21.9) n (%) | Fatigue (all-grade AE) (Total N = 32): 10 (31.3) n (%) | Febrile neutropenia (all-grade AE) (Total N = 32): 9 (28.1) n (%) | Headache (all-grade AE) (Total N = 32): 4 (12.5) n (%) | Hyperglycaemia (all-grade AE) (Total N = 32): 5 (15.6) n (%) | Hypocalcaemia (all-grade AE) (Total N = 32): 7 (21.9) n (%) | Hypokalaemia (all-grade AE) (Total N = 32): 7 (21.9) n (%) | Hypomagnesaemia (all-grade AE) (Total N = 32): 7 (21.9) n (%) | Hypophosphataemia (all-grade AE) (Total N = 32): 6 (18.8) n (%) | Hypotension (all-grade AE) (Total N = 32): 10 (31.3) n (%) | Maculopapular rash (all-grade AE) (Total N = 32): 4 (12.5) n (%) | Nausea (all-grade AE) (Total N = 32): 15 (46.9) n (%) | Oedema peripheral (all-grade AE) (Total N = 32): 9 (28.1) n (%) | Patients with any AE (all-grade AE) (Total N = 32): 31 (96.9) n (%) | Pneumonia (all-grade AE) (Total N = 32): 6 (18.8) n (%) | Pyrexia (all-grade AE) (Total N = 32): 4 (12.5) n (%) | Rash (all-grade AE) (Total N = 32): 4 (12.5) n (%) | Renal failure acute (all-grade AE) (Total N = 32): 4 (12.5) n (%) | Stomatitis (all-grade AE) (Total N = 32): 5 (15.6) n (%) | Vision blurred (all-grade AE) (Total N = 32): 4 (12.5) n (%) | Vomiting (all-grade AE) (Total N = 32): 10 (31.3) n (%) | Deaths during the study (all attributed to disease progression): nine | ECG abnormalities (all doses): No clinically significant ECG abnormalities | Patients with DLTs (all doses): five | AEs judged possibly related to AZD1208, patients (all doses, 32 patients): 68.8% | AZD1208 discontinued as a result of SAEs and AEs, patients (all doses, 32 patients): 25% | Diarrhoea possibly related to AZD1208, patients (all doses, 32 patients): 21.9% | Diarrhoea, patients (all doses, 32 patients): 43.8% | Fatigue possibly related to AZD1208, patients (all doses, 32 patients): 18.8% | Gastrointestinal disorders AEs, patients (all doses, 32 patients): 87.5% | Grade ≥3 febrile neutropenia, patients (all doses, 32 patients): 28.1% | Grade ≥3 hypotension, patients (all doses, 32 patients): 18.8% | Grade ≥3 pneumonia, patients (all doses, 32 patients): 15.6% | Nausea possibly related to AZD1208, patients (all doses, 32 patients): 37.5% | Nausea, patients (all doses, 32 patients): 46.9% | Patients who experienced an AE (all doses, 32 patients): 96.9% | Patients with a grade ≥3 AE (all doses, 32 patients): 24 n | SAE abdominal pain, patients (all doses, 32 patients): 6.3% | SAE back pain, patients (all doses, 32 patients): 6.3% | SAE febrile neutropenia, patients (all doses, 32 patients): 25.0% | SAE hypotension, patients (all doses, 32 patients): 6.3% | SAE maculopapular rash, patients (all doses, 32 patients): 6.3% | Serious AEs (SAEs), patients (all doses, 32 patients): 71.9% | Treatment-related SAEs, patients (all doses, 32 patients): 15.6% | Vomiting possibly related to AZD1208, patients (all doses, 32 patients): 18.8% | Time of DLT occurrence after the start of treatment (five patients with DLTs): 1 to 10 days | Doses generally tolerated (heavily pretreated AML, QD oral): up to 700 mg
